# In a melting point compilation (Tetko et al.; mined from patent text by program, amines drawn as free bases though some values may be those of a salt):
row,SMILES,melting point [°C]
1,COc1cc(C(C)=O)cc(Br)c1Oc1nc(C)nc(N2CCOCC2)n1,159 to 162
2,CC(C)C(=O)C(=Cc1ccccc1)C(=O)Nc1ccccc1,144 to 154
3,CC(C)c1nn(-c2ccc(Cl)cn2)cc1CO,135 to 136
4,CS(=O)(=O)c1ccc(-c2cc(CO)cn2-c2ccc(F)cc2)cc1,88 to 90
5,CC1CCCN1CCN1CCN(CCCN2CCCCC2)C1=C(C#N)C#N (centres undefined),84 to 86
6,CCCCCCCCCCCCCCCCC(C)C(=S)OC (centres undefined),39 to 40
7,COC(=O)C(=O)c1ccc(OCc2ccc3ccccc3c2)cc1,101 to 102
8,Cc1ccc(NC(=O)N(C)N)cc1NC(=O)N(C)N,164 to 165
9,CCOC(=O)c1cc(=O)c(Oc2ccc(O)cc2)co1,206 to 208
10,CN(C(=O)OC(C)(C)C)[C@H](Cc1ccc2ccccc2c1)C(=O)N1CCN(S(C)(=O)=O)C[C@H]1Cc1ccccc1,76 to 80
11,COc1ccc2c(c1OCc1ccccc1)CC(C(=O)O)N(C(=O)Cc1c(Cl)cccc1Cl)C2 (racemic),205 to 207
12,CCc1c(-c2ccc(O)cc2)n(Cc2ccc(OCCN3CCCCC3)cc2)c2ccc(O)cc12,160 to 164
13,COc1ccccc1Oc1c(NS(=O)(=O)c2ccc(C(C)(C)C)cc2)nc(SC)nc1OCCO,139 to 140
14,N#CCc1ccc2ncc(C(=O)NCc3ccc(Cl)cc3)c(O)c2c1,244 to 246
15,COC(CN(C)C(=O)Nc1ccc(Oc2cccc(C(F)(F)F)c2)cc1)OC,86 to 88
16,CSc1nc(NCCC(C)C)c2[nH]nc(C)c2n1,90 to 95
17,O=C(O)Cn1c(=O)c2cc(Cl)ccc2n(Cc2ccc(F)cc2)c1=O,211 to 212
18,NC(=O)COCC(N)=S,164 to 168
19,Cn1c(=O)c2c(ncn2CCCN2CCC(C(=O)c3ccc(F)cc3)CC2)n(C)c1=O,114 to 119
20,CC(=O)N1CC(C)(C)c2cc3[nH]nnc3cc21,281 to 283

row,SMILES,melting point [°C]
1,CCOC(=O)c1sc(Br)c(Br)c1Cl,58 to 63
2,COC(=O)c1nsc(N)n1,202 to 205
3,CCOC(=O)c1nn(-c2ccc(OC(F)(F)F)cc2)c2cccc(F)c2c1=O,178
4,CCc1cc(-c2ccccc2)nn1-c1ccc([N+](=O)[O-])cc1,112 to 113
5,CC(C)(Cc1ccc(O)cc1)NCC(O)c1cc(OCc2ccccc2)cc2c1OCC(=O)N2 (centres undefined),255 to 258
6,CCOC(=O)c1c(O)c2cc(OCc3ccccc3)ccc2c(=O)n1CC(C)C,92 to 93
7,O=C1OC(Cc2ccc3c(c2)OCO3)CN1c1ccccc1 (centres undefined),110 to 111
8,CC(C)[C@]1(CCc2ccccc2)CC(O)=C(Sc2cc3sc(N)nc3cc2C(C)(C)C)C(=O)O1,186 to 188
9,Cc1cc2c(c(C)c1NC(=O)CC(C)(C)C)C(c1ccc(C(C)C)cc1)CO2 (centres undefined),130 to 131
10,N#Cc1ccccc1SC1SCC(O)C(O)C1O (centres undefined),118 to 119
11,O=C(O)CN1C(=O)C(=Cc2ccc(OCc3cccc(C(F)(F)F)c3)c(OCc3ccccc3)c2)SC1=S,187 to 194
12,COc1cc([C@@H]2SC[C@@H](c3cc(OC)c(O)c(OC)c3)S2)cc(OC)c1O (relative stereo),169 to 170
13,Cc1c(C)c2c(c(C)c1NC(=O)CC(C)(C)C)C(N1CCCC1)C(C)(C)O2 (centres undefined),197 to 198
14,CCCC[C@H](NC(=O)[C@H](CC(C)C)NC(=O)C1CCN(C(C)=O)CC1)C(=O)CSCc1ccco1,110 to 112
15,COC(=O)CCSC(C)(C)C(NS(=O)(=O)c1ccc(Oc2ccc(F)cc2)cc1)C(=O)O (centres undefined),123 to 124
16,"CC(=O)SCC(Cc1ccccc1)NC(=O)N1CCN(c2ccc(Cl)cc2)CC1 (single isomer, unassigned; (+))",140
17,CCCn1c(=O)c(C=C(C#N)C#N)c2n(c1=O)CCS2,135 to 137
18,CC(C)C(N)C(O)COc1ccccc1C1=NNC(=O)CC1 (centres undefined),124 to 126
19,CCCCCCCC(=O)NCCCCCCOS(C)(=O)=O,62 to 63
